Results taken from patent US12606795B2 (Thankcome Biological Science and Technology (SuZhou) Co., …, priority 2023, dated 2026).

Tests used:
[1] = Cell surface hydrophobicity (bacterial adherence to hydrocarbon, xylene); assay type: physicochemical; conditions: at 60 min
Procedure: Based on the ability of bacteria to adhere to hydrocarbons, the cell surface hydrophobicity of strain AKK PROBIO was measured. A test of bacterial adherence to hydrocarbon (BATH) was conducted using xylene, and some modifications were made. Specifically, the strains were cultured overnight in a BHI medium at 37° C. Cells were collected by centrifugation (4° C.; 8000 rpm; 10 min), washed twice, and resuspended in a phosphate buffer (PBS, pH 7), and absorbance (OD600 nm) was adjusted to 0.5 to normalize bacteria number. Then, an equal volume of xylene was added and vortexed for 5 min to fully mix a two-phase system. After the incubation at room temperature for 15, 30, and 60 min, an aqueous phase was carefully removed, and its absorbance at 600 nm was measured using a spectrophotometer. The affinity (hydrophobicity) for the hydrocarbons was calculated using the following formula:
[formula] • where P0 and P1 are absorbance values before and after extraction with the hydrocarbons, respectively.

[2] = Auto-aggregation; assay type: physicochemical; conditions: 37° C., at 20 h
Procedure: The absorbance (OD600 nm) was adjusted to 0.5. Then the bacterial suspension was cultured at 37° C., and its absorbance at 600 nm at 4, 8, 12, 16, 20, and 24 h was measured. The auto-aggregation percentage was calculated using the following formula: […]

[3] = Tolerance to artificial gastric juice; assay type: physicochemical; conditions: artificial gastric juice pH 2.0, 37° C., at 240 min
Procedure: Gastric juice ([…], 2 g/L NaCl, and 3.2 g/L pepsin, pH 2.0) and intestinal juice (6.8 g/L KH2 PO4, 10 g/L trypsin, and 0.1M NaOH, pH 8.0) were prepared, and then the gastric juice and the intestinal juice were filtered and sterilized using 0.22 μm sterile filter. […] The bacterial cells were washed twice with sterile saline and resuspended in 5 mL saline. A bacterial solution was mixed well with the sterile artificial gastric or intestinal juice in 1:1 (v/v). The mixture was shaken well, and then was placed in a constant-temperature incubator and culture was performed at 37° C.

[4] = system: mice; test: Subchronic toxicity experiment, 90 d; assay type: in vivo
Procedure: Animals were randomly divided into four groups: group 1 (half male and half female) (saline, 0 CFU/kg. bw/d), group 2 (half male and half female) (9.2×10^8 CFU/kg. bw/d), group 3 (half female and half male) ([…]), and group 4 (half male and half female) (92×10^8 CFU/kg. bw/d). A new bacterial suspension was prepared per day. The bacterial suspension was intragastrically administrated orally for 90 consecutive days at a dosage volume of 5 mL/kg. bw. Clinical signs were recorded per day, and detailed clinical observation was conducted once a week. The body weight, the food consumption, and the water intake were recorded once a week. At the end of the experimental period, blood samples were collected for hematological and serum biochemical analysis (refer to Embodiment 4). An autopsy was conducted on all animals, and the weight of main organs was recorded. A histopathological examination was performed on the major organs and tissue of all the animals in each group (refer to Embodiment 4). […]
Determination of blood glucose: In a certain time interval after administration, at 0, 15, 30, 60, 90 and 120 min, the tail venous blood of the mouse was taken, and the blood glucose level of the mouse was measured using a blood glucose meter measurement method. […]

[5] = system: gouty arthritis mouse model; test: Gouty arthritis mouse model (sodium urate); assay type: in vivo, BALB/c mice; conditions: for SOD in mouse ankle joint tissue: model group 1.07, normal 6.07; for MPO in mouse ankle joint tissue: model group 2.49, normal 0.38; for GSH in mouse ankle joint tissue: model group 18.06, normal 47.05; for IL-1β in serum of mice: model group 24.97, normal 12.66; for MDA in mouse ankle joint tissue: model group 26.69, normal 5.74; for IL-10 in serum of mice: model group 36.03, normal 27.20; for IL-6 in serum of mice: model group 90.05, normal 52.97; for TNF-α in serum of mice: model group 249.41, normal 117.58
Procedure: Mice were randomly divided into 5 groups: a normal group, a model group, a glucosamine sulfate (positive control) group, an Akk low-concentration experimental (Akk-L) group, and an Akk high-concentration experimental (Akk-H) group, with 10 mice in each group. The mice in the normal group and the mice in the model group were intragastrically administered with distilled water at a dosage of 0.1 mL/10 g. bw per day. The mice in the glucosamine sulfate group were intragastrically administered with glucosamine sulfate at a dosage of 195 mg/kg. bw. The mice in the Akk-L group and the mice in the Akk-H group were intragastrically administered with Akk experimental bacteria at a dosage of 10^8 CFU/kg. bw and 10^9 CFU/kg. bw, respectively, for 7 consecutive days. Then, all experimental mice were anesthetized with isoflurane, and then 50 μL of PBS solution was injected into the tibiotarsal joint (ankle joint) of the right paw of the mouse in the normal group. 50 mg of sodium urate was added to 1 mL of PBS buffer to prepare a suspension. 50 μL of suspension was injected into the tibiotarsal joints (ankle joint) of the right paws of the rest of the mice except the mice in the […] to induce gouty arthritis. After the mice woke up, they were intragastrically administrated with a corresponding sample for 7 d still at the dosage of the sample intragastrically administrated in the previous 7 days.
0.1 g of mouse ankle joint tissue was weighed and added into […] containing 0.9 mL of saline and mixing was performed. Subsequently, mixed tissue samples were centrifuged at a speed of 4000 rpm for 10 min to obtain liquid supernatant. Next, related indicators in the liquid supernatant of a tissue homogenate was determined using assay kits for MPO, SOD, GSH, and MDA.
A taken-out whole blood sample of the mouse was centrifuged at 4° C. at 4000 rpm for 10 min to obtain supernatant serum. Serum-related inflammatory indicators were determined using the ELISA kit for IL-6, IL-10, IL-1β, and TNF-α.

[6] = Akk-H 10^9 CFU/kg. bw intragastric
[7] = Akk-L 10^8 CFU/kg. bw intragastric

For Akkermansia muciniphila [AKK PROBIO], the hydrophobicity [1] was at least 30%, the auto-aggregation [2] was “around 52%” and the “survival rate in gastric juice” value [3] was “around 85%”. The “pathological injury to the livers and kidneys” value ([4]; 90 d) was “no significant pathological injury”, the “weight of major organs” value ([4]; 90 d, heart, liver, spleen, kidneys, thymus, brain, testes, lungs, pancreas, stomach, intestine, vs control group) was “substantially no significant difference” and the “changes of blood glucose per week” value ([4]; 90 d, medium-dosage group (27.6×10^8) vs control saline group) was “significant difference”. The “changes of blood glucose per week” value ([4]; 90 d, the other groups (low, high dosage) vs control group) was “no significant difference”, the “level of the bile acid both in serum and liver” value ([4]; 90 d, the other groups vs control group) was “no significant difference” and the “activity of glutamic oxalacetic transaminase in both serum and liver” value ([4]; 90 d, vs control group) was “no significant difference”. For the same substance, the “activity of glutamic pyruvate transaminase in both serum and liver” value ([4]; 90 d, vs control group) was “no significant difference”, the “blood glucose regulation ability (glucose tolerance and insulin tolerance)” value ([4]; 90 d, vs control group) was “no significant difference” and the “concentration of blood urea nitrogen in serum” value ([4]; 90 d, vs control group) was “no significant difference”. The “content of creatinine in serum” value ([4]; 90 d, vs control group) was “no significant difference”, the “content of total protein in both serum and liver” value ([4]; 90 d, vs control group) was “no significant difference” and the “level of glucose in both serum and liver” value ([4]; 90 d, vs control group) was “no significant difference”. For the same substance, the “level of the cholesterol in both liver and serum” value ([4]; 90 d, vs control group) was “no significant difference”, the “level of the triglyceride in both liver and serum” value ([4]; 90 d, vs control group) was “no significant difference” and the “changes of body weight per week” value ([4]; 90 d, vs control saline group) was “no significant difference”. For the same substance, the “changes of food intake per week” value ([4]; 90 d, vs control saline group) was “no significant difference”, the various blood indicators ([4]; 90 d, vs control saline group) was “no significant difference” and the death ([4]; intragastric 90 consecutive days, high, medium, low dosage (92×10^8, 27.6×10^8, 9.2×10^8 CFU/kg. bw/d)) was “no death occurs”. The “SOD in mouse ankle joint tissue” value [5, 6] was 4.70 ± 0.16 U/mg, the “MPO in mouse ankle joint tissue” value [5, 6] was 0.77 ± 0.06 U/g and the “GSH in mouse ankle joint tissue” value [5, 6] was 39.28 ± 2.39 mg/g. The “IL-1β in serum of mice” value [5, 6] was 18.48 ± 1.34 ng/mL, the “MDA in mouse ankle joint tissue” value [5, 6] was 12.97 ± 1.20 nmol/mg and the “IL-10 in serum of mice” value [5, 6] was 28.72 ± 1.35 ng/mL. For the same substance, the “IL-6 in serum of mice” value [5, 6] was 58.83 ± 2.60 ng/mL, the “TNF-α in serum of mice” value [5, 6] was 148.87 ± 9.60 ng/mL and the “SOD in mouse ankle joint tissue” value [5, 7] was 2.31 ± 0.43 U/mg. The “MPO in mouse ankle joint tissue” value [5, 7] was 1.97 ± 0.19 U/g, the “GSH in mouse ankle joint tissue” value [5, 7] was 29.89 ± 2.63 mg/g and the “IL-1β in serum of mice” value [5, 7] was 21.83 ± 1.72 ng/mL. The “MDA in mouse ankle joint tissue” value [5, 7] was 20.93 ± 1.30 nmol/mg, the “IL-10 in serum of mice” value [5, 7] was 34.17 ± 2.18 ng/mL and the “IL-6 in serum of mice” value [5, 7] was 71.59 ± 5.46 ng/mL. For the same substance, the “TNF-α in serum of mice” value [5, 7] was 211.76 ± 10.58 ng/mL.
